The target of the first assay is GppNp-KRAS G12V (Homo sapiens, UniProt P01116, G12V). Nature of the assay: GTP-K-Ras and cRAF interaction assay, GppNp-KRAS G12V. To be noted: read-out: Biochemical assays, IC50, KRAS G12V GppNp; GppNp-loaded K-Ras G12V, cRAF RBD interaction, HTRF.
GDP-KRAS G12D, sequence (P01116 1-169 isoform P01116-2 G12D): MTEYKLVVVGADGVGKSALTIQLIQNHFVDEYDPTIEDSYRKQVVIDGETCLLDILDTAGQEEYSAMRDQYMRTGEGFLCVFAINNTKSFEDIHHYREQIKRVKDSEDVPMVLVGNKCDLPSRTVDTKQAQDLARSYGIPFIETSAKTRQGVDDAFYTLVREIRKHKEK
GppNp-KRAS G12D, sequence (P01116 1-169 isoform P01116-2 G12D): as above
GppNp-KRAS G12V, sequence (P01116 1-169 isoform P01116-2 G12V): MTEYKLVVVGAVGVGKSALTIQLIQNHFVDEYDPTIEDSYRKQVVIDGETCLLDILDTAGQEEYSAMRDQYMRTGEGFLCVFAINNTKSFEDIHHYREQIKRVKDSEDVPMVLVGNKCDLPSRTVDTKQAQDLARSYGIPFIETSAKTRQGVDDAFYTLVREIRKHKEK
GDP-KRAS G12V, sequence (P01116 1-169 isoform P01116-2 G12V): as above
For `C#Cc1c(F)ccc2cc(N)cc(-c3nc4c5c(nc(OC[C@@]67CCCN6C[C@H](F)C7)nc5c3F)N3CC(F)(F)CCC[C@@H]3N4C)c12` [Compound 106A], the IC50 is greater than 1000 nM.
Take `C#Cc1c(F)ccc2cc(N)cc(-c3nc4c5c(nc(OCC67CCCN6CC(F)C7)nc5c3F)N3C(C)CCOCC3CO4)c12` (centres unmarked) [Compound 38B]: the IC50 was 685 nM.
The same measure, in the same setting: in the case of `C#Cc1c(F)ccc2cc(N)cc(-c3nc4c5c(nc(OC[C@@]67CCCN6C[C@H](F)C7)nc5c3F)N3CCCCC[C@@H]3CO4)c12` [Compound 27A] it was greater than 1000 nM; in that of `C#Cc1c(F)ccc2cc(N)cc(-c3nc4c5c(nc(OC[C@@]67CCCN6C[C@H](F)C7)nc5c3F)N3CCCC[C@@H](Cl)[C@@H]3N4C)c12` [Compound 62A], greater than 1000 nM.
Still for that read-out and setting: the result for `C#Cc1c(F)ccc2cc(N)cc(-c3nc4c5c(nc(OCC67CCCN6CC(F)C7)nc5c3F)N3C(C#N)CCCCC3N4C)c12` (centres unmarked) [Compound 168B] reads greater than 1000 nM.

For a further assay, the system named is AsPC-1 cells (K-Ras G12D).
Experiment: not given
Conditions: not given
For `C#Cc1c(F)ccc2cc(N)cc(-c3nc4c5c(nc(OCC67CCCN6CC(F)C7)nc5c3F)N3C(C)CCOCC3CO4)c12` (centres unmarked) [Compound 38B], it took 61.3 nM to reach half-maximal inhibition (IC50).

Another assay concerns the target GDP-KRAS G12V (Homo sapiens, UniProt P01116, G12V). The experiment in a line: SOS1 catalyzed nucleotide exchange assay, GDP-KRAS G12V. To be noted: read-out: Biochemical assays, IC50, KRAS G12V GDP, GDP form K-Ras G12V, TR-FRET.
In the case of `C#Cc1c(F)ccc2cc(N)cc(-c3nc4c5c(nc(OC[C@@]67CCCN6C[C@H](F)C7)nc5c3F)N3CC(F)(F)CCC[C@@H]3N4C)c12` [Compound 106A], the IC50 stood at 226 nM.
Turning to `C#Cc1c(F)ccc2cc(N)cc(-c3nc4c5c(nc(OCC67CCCN6CC(F)C7)nc5c3F)N3C(C)CCOCC3CO4)c12` (centres unmarked) [Compound 38B], the IC50 was found to be 0.397 nM.
On the same count and under the same terms, in the case of `C#Cc1c(F)ccc2cc(N)cc(-c3nc4c5c(nc(OC[C@@]67CCCN6C[C@H](F)C7)nc5c3F)N3CCCCC[C@@H]3CO4)c12` [Compound 27A] it was 65.1 nM.
The same measure, in the same setting: the result for `C#Cc1c(F)ccc2cc(N)cc(-c3nc4c5c(nc(OC[C@@]67CCCN6C[C@H](F)C7)nc5c3F)N3CCCC[C@@H](Cl)[C@@H]3N4C)c12` [Compound 62A] reads 389 nM.
The same measure, in the same setting: in the case of `C#Cc1c(F)ccc2cc(N)cc(-c3nc4c5c(nc(OCC67CCCN6CC(F)C7)nc5c3F)N3C(C#N)CCCCC3N4C)c12` (centres unmarked) [Compound 168B] it was 631 nM.

A further assay concerns the target GppNp-KRAS G12D (Homo sapiens, UniProt P01116, G12D). The experiment in a line: GTP-K-Ras and cRAF interaction assay, GppNp-KRAS G12D. To be noted: read-out: Biochemical assays, IC50, KRAS G12D GppNp; GppNp-loaded K-Ras G12D, cRAF RBD interaction, HTRF.
Take `C#Cc1c(F)ccc2cc(N)cc(-c3nc4c5c(nc(OC[C@@]67CCCN6C[C@H](F)C7)nc5c3F)N3CC(F)(F)CCC[C@@H]3N4C)c12` [Compound 106A]: the IC50 is greater than 1000 nM.
As to `C#Cc1c(F)ccc2cc(N)cc(-c3nc4c5c(nc(OCC67CCCN6CC(F)C7)nc5c3F)N3C(C)CCOCC3CO4)c12` (centres unmarked) [Compound 38B], the IC50 was found to be 174 nM.
`C#Cc1c(F)ccc2cc(N)cc(-c3nc4c5c(nc(OC[C@@]67CCCN6C[C@H](F)C7)nc5c3F)N3CCCCC[C@@H]3CO4)c12` [Compound 27A]: the IC50 is greater than 1000 nM.
With `C#Cc1c(F)ccc2cc(N)cc(-c3nc4c5c(nc(OC[C@@]67CCCN6C[C@H](F)C7)nc5c3F)N3CCCC[C@@H](Cl)[C@@H]3N4C)c12` [Compound 62A], the IC50 was greater than 1000 nM.
Regarding `C#Cc1c(F)ccc2cc(N)cc(-c3nc4c5c(nc(OCC67CCCN6CC(F)C7)nc5c3F)N3C(C#N)CCCCC3N4C)c12` (centres unmarked) [Compound 168B], the IC50 was greater than 1000 nM.

A further assay relates to SW620 cells (K-Ras G12V). The experiment in a line: Phospho-ERK1/2(THR202/TYR204) HTRF assay, SW620. The format is cell-based. To be noted: 2 hours incubation, read-out: pERK, IC50, SW620.
Experimental: Each of cells in culture medium was seeded in 96-well plates at density indicated in Table 4 and put in a cell incubator to incubate overnight. The next day, the culture medium was removed and the compound diluted in assay medium was added in each well. […] 10 μL of cell lysates from the 96-well plates were transferred to a 384-well plate (Greiner) containing 2.5 μL/well HTRF® pre-mixed antibodies (Cisbio 64AERPEH). The plate was incubated 4 hours at 25° C. and read HTRF signals on Tecan Spark multimode microplate reader. The data were analyzed using a 4-parameter logistic model to calculate IC50 values.
In the case of `C#Cc1c(F)ccc2cc(N)cc(-c3nc4c5c(nc(OCC67CCCN6CC(F)C7)nc5c3F)N3C(C)CCOCC3CO4)c12` (centres unmarked) [Compound 38B], the IC50 was 2.59 nM.

In another assay the test system is SW620 cells (K-Ras G12V).
Experiment: not given
Conditions: not given
The compound `C#Cc1c(F)ccc2cc(N)cc(-c3nc4c5c(nc(OCC67CCCN6CC(F)C7)nc5c3F)N3C(C)CCOCC3CO4)c12` (centres unmarked) [Compound 38B] displayed an IC50 of 5.47 nM.

Another assay concerns the target GDP-KRAS G12D (Homo sapiens, UniProt P01116, G12D). Nature of the assay: SOS1 catalyzed nucleotide exchange assay, GDP-KRAS G12D. To be noted: read-out: Biochemical assays, IC50, KRAS G12D GDP, GDP form K-Ras G12D, TR-FRET.
As to `C#Cc1c(F)ccc2cc(N)cc(-c3nc4c5c(nc(OC[C@@]67CCCN6C[C@H](F)C7)nc5c3F)N3CC(F)(F)CCC[C@@H]3N4C)c12` [Compound 106A], the IC50 is 630 nM.
As for `C#Cc1c(F)ccc2cc(N)cc(-c3nc4c5c(nc(OCC67CCCN6CC(F)C7)nc5c3F)N3C(C)CCOCC3CO4)c12` (centres unmarked) [Compound 38B], the IC50 was 1.05 nM.
Turning to `C#Cc1c(F)ccc2cc(N)cc(-c3nc4c5c(nc(OC[C@@]67CCCN6C[C@H](F)C7)nc5c3F)N3CCCCC[C@@H]3CO4)c12` [Compound 27A], the half-inhibitory concentration (IC50) stood at 47.8 nM.
On the same count and under the same terms, in the case of `C#Cc1c(F)ccc2cc(N)cc(-c3nc4c5c(nc(OC[C@@]67CCCN6C[C@H](F)C7)nc5c3F)N3CCCC[C@@H](Cl)[C@@H]3N4C)c12` [Compound 62A] it was 703 nM; in that of `C#Cc1c(F)ccc2cc(N)cc(-c3nc4c5c(nc(OCC67CCCN6CC(F)C7)nc5c3F)N3C(C#N)CCCCC3N4C)c12` (centres unmarked) [Compound 168B], 503 nM.
